The values that follow come from patent publication US4826994A, “Production of substituted 1,3,4,9-tetrahydropyrano(3,4-B)indole-1-acetic acids” (American Home Products Corporation, priority 1988, dated 1989).

Assay [1] is described as follows: Preventative Adjuvant Edema (acute anti-inflammatory effect in rats). Type of assay: in vivo, Male Sprague Dawley rats. Particulars: for inhibition in vivo at 25 mg/kg / Preventative Adjuvant Edema, percent inhibition: p.o., 25 mg/kg; for inhibition in vivo at 25 mg/kg: read-out: Preventative Adjuvant Edema, percent inhibition. The protocol: This test is a primary screen for anti-inflammatory drugs.
Male Sprague Dawley rats (180-200 g) are used. The animals have free access to water but food is withdrawn 18 hours before testing.
Drug Preparations and Administration:
Freund's complete adjuvant is prepared by suspending 5 mg of killed and dried Mycobacterium butyricum (Difco) in 1 mL mineral oil. The test compounds are dissolved, of suspended in 0.5% Tween 80 in distilled water according to their solubility. For primary screening all drugs are administered by gastric lavage at the arbitrary dosage of 25 mg/kg, p.o. in a volume of 0.5 mL/100 g body weight to groups of 10 animals.
The method is essentially that described by Wax et al, J. Pharmacol. Exp. Ther., 192, 166-171 (1975). Groups of rats are injected intradermally in the left hind paw with 0.1 mL of Freund's complete adjuvant. The test compound or vehicle is administered immediately before the adjuvant, 24 hours and 48 hours after the adjuvant (days 0, 1 and 2). The injected hind paw volume is measured before the injection of adjuvant and 24 hrs. after the last drug administration (day 3) by means of a plethysmometer (Buxco Electronics Inc.). The difference between the hind paw volume on day 0 and day 3 represents the edema volume. Etodolac (25 mg/kg, p.o.) is included as a positive control.
The mean edema volume (expressed as mL±SEM) is calculated for each group and the percentage protection conferred by the drug is calculated: [formula] where c is the mean edema volume for the vehicle-treated (0.5% Tween 80 in distilled water) controls and t is the mean edema volume for the drug treated group.

A short description of assay [2]: Drug Effects on Phenylbenzoquinone-induced Writhing in Mice. The class given is in vivo, Male Swiss albino mice. The settings on record: for inhibition in vivo at 25 mg/kg / ED50: Mus musculus, po; for inhibition in vivo at 25 mg/kg: read-out: Phenylquinone Writhing in Mice, percent inhibition; for ED50: value in parentheses, read-out: Phenylquinone Writhing in Mice, ED50. The protocol:
A further test used to determine the utility of the compounds of the present invention is designated: Drug Effects on Phenylbenzoquinone-induced Writhing in Mice
The objective of this test is to determine the ability of test drugs to inhibit the nociceptive (pain) response of mice injected with a chemical irritant. This test is a primary screen for both peripheral and centrally acting analgesic drugs.
Male Swiss albino mice (15-25 g). The animals are fasted for 18 hours prior to use but have free access to water.
Drug Preparation and Administration:
Drugs are dissolved or suspended according to their solubility in 0.5% Tween 80 in distilled water. They are administered by gastric gavage in a volume of 5 mL/kg. For primary screening all drugs are administered at the arbitrary dosage of 25 mg/kg, p.o. to a group of 10 mice.
A modification of the method of Siegmund et al, Proc. Soc. Exp. Biol. Med., 95, 729-731 (1957) is used. Groups of 5 mice are dosed with the test compound or vehicle control. Sixty minutes later the animals are injected i.p. with 0.3 mL/20 g body weight of a 0.02% solution of phenylbenzoquinone (PBQ; 2-phenyl-1,4-benzoquinone) and placed in individual observation boxes. The number of writhing or abdominal squirming movements made by each mouse during the following 15 min. period is counted. The experiment is repeated with another group of 5 mice and the mean number of writhes per mouse for a group of 10 mice is calculated.
Drug treated and vehicle-treated control groups are compared and the percentage protection conferred by the drug is calculated: [formula] where c=mean number of writhes in the control group where t=mean number of writhes in the test drug group
In general terms: An intraperitoneal irritant provokes the stretching counted in writhing tests.

As for `C=CCC1COC(CC)(CC(=O)O)c2[nH]c3c(CC)cccc3c21` (single isomer, unassigned) [Example 11, 1,8-diethyl-1,3,4,9-tetrahydro-4-(2-propenyl)-pyrano[3,4-b]indole-1-acetic acid], the inhibition in vivo at 25 mg/kg in assay [1] (Rattus norvegicus, po, 72 h) stood at 55%; in assay [2] (25 mg/kg, p.o.) it was 11%.

Take `C=CCC1COC(CC)(CC(=O)O)c2[nH]c3c(CCC)cccc3c21` (single isomer, unassigned) [Example 13, 1-ethyl-1,3,4,9-tetrahydro-4-(2-propenyl)-8-propyl-pyrano[3,4-b]indole-1-acetic acid]: the inhibition in vivo at 25 mg/kg in assay [1] (Rattus norvegicus, po, 72 h) was 36%; in assay [2] (25 mg/kg, p.o.) it was 2%.

Turning to `C=CCC1COC(CC)(CC(=O)O)c2[nH]c3ccccc3c21` (single isomer, unassigned) [Example 14], the inhibition in vivo at 25 mg/kg was 46% in assay [1] (Rattus norvegicus, po, 72 h) and 21% in assay [2] (25 mg/kg, p.o.).

Regarding `C=CCC1COC(CC)(CC(=O)O)c2[nH]c3ccccc3c21` (single isomer, unassigned) [Example 15], the “Preventative Adjuvant Edema, percent inhibition” value in assay [1] was 30%. Also, the “Phenylquinone Writhing in Mice, percent inhibition” value in assay [2] (25 mg/kg, p.o.) was determined as 25%.

`C=CCC1COC(CC)(CC(=O)O)c2[nH]c3c(C)c(Cl)ccc3c21` (single isomer, unassigned) [Example 17, 7-chloro-1-ethyl-1,3,4,9-tetrahydro-8-methyl-4-(2-propenyl)-pyrano[3,4-b]indole-1-acetic acid]: the inhibition in vivo at 25 mg/kg in assay [1] (Rattus norvegicus, po, 72 h) stood at 44%; in assay [2] (25 mg/kg, p.o.) it was 11%.

In the case of `CCC1(CC(=O)O)OCC(Cc2ccccc2)c2c1[nH]c1c(C)c(Cl)ccc21` (single isomer, unassigned) [Example 20, 7-chloro-1-ethyl-1,3,4,9-tetrahydro-8-methyl-4-(phenylmethyl)-pyrano[3,4-b]indole-1-acetic acid], the “Preventative Adjuvant Edema, percent inhibition” value in assay [1] is recorded as 34%. Moreover, the inhibition in vivo at 25 mg/kg in assay [2] (25 mg/kg, p.o.) stood at 11%.

Take `CCC1(CC(=O)O)OCC(Cc2ccccc2)c2c1[nH]c1c(C)cccc21` (single isomer, unassigned) [Example 21, 1-ethyl-1,3,4,9-tetrahydro-8-methyl-4-(phenylmethyl)-pyrano[3,4-b]indole-1-acetic acid]: the inhibition in vivo at 25 mg/kg in assay [1] (Rattus norvegicus, po, 72 h) was 40%; in assay [2] (25 mg/kg, p.o.) it was 11%.

With `CCC1(CC(=O)O)OCC(Cc2ccccc2)c2c1[nH]c1c(Cl)ccc(C)c21` (single isomer, unassigned) [Example 23, 8-chloro-1-ethyl-1,3,4,9-tetrahydro-5-methyl-4-(phenylmethyl)-pyrano[3,4-b]indole-1-acetic acid], the “Preventative Adjuvant Edema, percent inhibition” value in assay [1] is listed as 0%. In assay [2], the ED50 (as a rule, the midpoint of the dose-response relation) amounted to 1.4 mg/kg.

As for `CCC1(CC(=O)O)OCC(Cc2ccccc2)c2c1[nH]c1c(Cl)ccc(C)c21` (single isomer, unassigned) [Example 24, 8-chloro-1-ethyl-1,3,4,9-tetrahydro-5-methyl-4-(phenylmethyl)-pyrano[3,4-b]indole-1-acetic acid], in assay [1], the “Preventative Adjuvant Edema, percent inhibition” value worked out at 2%. Besides, in assay [2] (25 mg/kg, p.o.), the inhibition in vivo at 25 mg/kg amounted to 0%.

Regarding `CCC1(CC(=O)O)OCC(Cc2ccccc2)c2c1[nH]c1ccc(Br)cc21` (single isomer, unassigned) [Example 25, 6-bromo-1-ethyl-1,3,4,9-tetrahydro-4-(phenylmethyl)-pyrano[3,4-b]indole-1-acetic acid], the ED50 in assay [2] was 3.1 mg/kg.

Consider `CCC1(CC(=O)O)OCC(Cc2ccccc2)c2c1[nH]c1ccc(Br)cc21` (single isomer, unassigned) [Example 26, 6-bromo-1-ethyl-1,3,4,9-tetrahydro-4-(phenylmethyl)-pyrano[3,4-b]indole-1-acetic acid], for which the inhibition in vivo at 25 mg/kg in assay [2] (25 mg/kg, p.o.) was determined as 10%.

As for `C=CCC1COC(CC)(CC(=O)O)c2[nH]c3ccc(F)cc3c21` (single isomer, unassigned) [Example 27], the inhibition in vivo at 25 mg/kg in assay [2] (25 mg/kg, p.o.) turned out to be 24%.

For the compound `CCC1(CC(=O)O)OCC(Cc2ccccc2)c2c1[nH]c1c(C)ccc(Cl)c21` (single isomer, unassigned) [Example 29, 5-chloro-1-ethyl-1,3,4,9-tetrahydro-8-methyl-4-(phenylmethyl)-pyrano[3,4-b]indole-1-acetic acid], in assay [2], the ED50 was 3.2 mg/kg.

Regarding `CCC1(CC(=O)O)OCC(Cc2ccccc2)c2c1[nH]c1cc(Cl)ccc21` (single isomer, unassigned) [Example 34, 7-chloro-1-ethyl-1,3,4,9-tetrahydro-4-(phenylmethyl)-pyrano[3,4-b]indole-1-acetic acid], in assay [2], the ED50 came to 1.4 mg/kg.

In the case of `CCC1(CC(=O)O)OCC(Cc2ccc(Cl)cc2)c2c1[nH]c1ccccc21` (single isomer, unassigned) [Example 40], the inhibition in vivo at 25 mg/kg in assay [1] (Rattus norvegicus, po, 72 h) is 60%; in assay [2] (25 mg/kg, p.o.), 47%.

Take `CCC1(CC(=O)O)OCC(Cc2ccc(OC)cc2)c2c1[nH]c1ccccc21` (single isomer, unassigned) [Example 41]: the inhibition in vivo at 25 mg/kg in assay [2] (25 mg/kg, p.o.) was found to be 30%.

As for `C=CCC1COC(CC)(CC(=O)O)c2[nH]c3c(C)c(F)ccc3c21` (single isomer, unassigned; isomer a) [Example 6, 1-Ethyl-7-fluoro-1,3,4,9-tetrahydro-8-methyl-4-(2-propenyl)pyrano[3,4-b]indole-1-acetic Acid (Isomer A)], the ED50 in assay [1] (Rattus norvegicus, po, 72 h, value in parentheses) was found to be 3.2 mg/kg; in assay [2], 18 mg/kg.

With `CCC1(CC(=O)O)OCC(Cc2ccccc2)c2c1[nH]c1ccccc21` (single isomer, unassigned; isomer b) [Example 3, 1-Ethyl-1,3,4,9-tetrahydro-4-(phenylmethyl)-pyrano[3,4-b]indole-1-acetic Acid (Isomer B)], the inhibition in vivo at 25 mg/kg in assay [2] (25 mg/kg, p.o.) is 19%.

As to `CCc1cccc2c3c([nH]c12)C(CC)(CC(=O)O)OCC3Cc1ccccc1` (single isomer, unassigned; isomer b) [Example 5, 1,8-Diethyl-1,3,4,9-tetrahydro-4-(phenylmethyl-pyrano[3,4-b]indole-1-aceticAcid (Isomer B)], the “Preventative Adjuvant Edema, percent inhibition” value in assay [1] was determined as 4%.

Consider `C=CCC1COC(CC)(CC(=O)O)c2[nH]c3c(C)c(F)ccc3c21` (single isomer, unassigned; isomer b) [Example 7, 1-Ethyl-7-fluoro-1,3,4,9-tetrahydro-8-methyl-4-(2-propenyl)pyrano[3,4-b]indole-1-acetic Acid (Isomer B)], for which the inhibition in vivo at 25 mg/kg in assay [1] (Rattus norvegicus, po, 72 h) turned out to be 37%; in assay [2] (25 mg/kg, p.o.), 15%.
